Laboratory results taken from the CheMixHub viscosity set.

Assay: xn = mol fraction of the nth substance listed

C=Cc1ccccc1 + CCCO
298.15 K, 101.33 kPa
Conditions	viscosity [mPa·s]
x1 = 0.0999	1.594
x1 = 0.1997	1.326
x1 = 0.298	1.153
x1 = 0.3952	1.011
x1 = 0.4985	0.892
x1 = 0.6022	0.815
x1 = 0.6984	0.762
x1 = 0.7985	0.727
x1 = 0.9019	0.707

BrC(Br)Br + CCCCO
viscosity [mPa·s], 101.3 kPa
Conditions	x1 = 0.099	x1 = 0.205	x1 = 0.3	x1 = 0.401	x1 = 0.501	x1 = 0.602	x1 = 0.699	x1 = 0.803	x1 = 0.899
298.15 K	2.482	2.339	2.196	2.063	1.955	1.887	1.847	1.817	1.827
303.15 K	2.183	2.07	1.942	1.841	1.768	1.718	1.695	1.684	1.709
308.15 K	1.915	1.828	1.738	1.662	1.607	1.573	1.559	1.564	1.588

CC(=O)c1ccc(Cl)cc1 + CCOC(=O)OCC
303.15 K, 101 kPa
Conditions	viscosity [mPa·s]
x2 = 0.0511	2.657
x2 = 0.1131	2.468
x2 = 0.1611	2.309
x2 = 0.2221	2.126
x2 = 0.2808	1.948
x2 = 0.3435	1.765
x2 = 0.4256	1.557
x2 = 0.5032	1.372
x2 = 0.6089	1.162
x2 = 0.6807	1.045
x2 = 0.7618	0.927
x2 = 0.8127	0.877
x2 = 0.8641	0.825
x2 = 0.9197	0.774
x2 = 0.9678	0.725

BrC(Br)Br + ClC(Cl)(Cl)Cl
Conditions	viscosity [mPa·s]
298 K, 101.3 kPa, x1 = 0.1194	0.965
298 K, 101.3 kPa, x1 = 0.2186	1.037
298 K, 101.3 kPa, x1 = 0.3128	1.115
298 K, 101.3 kPa, x1 = 0.4431	1.231
298 K, 101.3 kPa, x1 = 0.5248	1.308
298 K, 101.3 kPa, x1 = 0.6217	1.397
298 K, 101.3 kPa, x1 = 0.7153	1.477
298 K, 101.3 kPa, x1 = 0.8068	1.609
298 K, 101.3 kPa, x1 = 0.8986	1.753
318 K, 101.33 kPa, x1 = 0.1597	0.8215
318 K, 101.33 kPa, x1 = 0.3179	0.9131
318 K, 101.33 kPa, x1 = 0.5191	1.056
318 K, 101.33 kPa, x1 = 0.6651	1.164
318 K, 101.33 kPa, x1 = 0.8607	1.328

BrC(Br)Br + CO
318 K, 101.33 kPa
Conditions	viscosity [mPa·s]
x1 = 0.163	0.6935
x1 = 0.3122	0.8844
x1 = 0.4563	1.043
x1 = 0.7234	1.261
x1 = 0.8987	1.383

BrC(Br)Br + Nc1ccccc1
298.15 K, 101 kPa
Conditions	viscosity [mPa·s]
x1 = 0.1402	3.373
x1 = 0.2067	3.235
x1 = 0.3151	3.026
x1 = 0.4133	2.856
x1 = 0.5137	2.657
x1 = 0.614	2.486
x1 = 0.701	2.349
x1 = 0.808	2.196

CCC(C)(C)OC + CCCO
298.15 K, 101.33 kPa
Conditions	viscosity [mPa·s]
x1 = 0.0142	1.889
x1 = 0.0405	1.759
x1 = 0.0642	1.647
x1 = 0.0889	1.548
x1 = 0.1148	1.461
x1 = 0.152	1.33
x1 = 0.2075	1.18
x1 = 0.2876	1.002
x1 = 0.289	0.999
x1 = 0.3381	0.912
x1 = 0.3924	0.833
x1 = 0.4452	0.767
x1 = 0.489	0.72
x1 = 0.5363	0.677
x1 = 0.5867	0.633
x1 = 0.645	0.594
x1 = 0.6933	0.564
x1 = 0.7588	0.53
x1 = 0.8347	0.496
x1 = 0.9093	0.455
x1 = 0.947	0.454
